The values below are quoted from earlier work in patent US7498354B2, “Pyrrolo[2,3-D]imidazoles for the treatment of hyperproliferative disorders” (OSI Pharmaceuticals, Inc., priority 2006, dated 2009).

Counter-ions that a name gives are not always drawn.

Series [1] concerns MO7e human leukemia cells. The note with it: Kit ligand stimulation.
Series [2] has as its system MO7e human leukemia cells. The note with it: GM-CSF stimulation.

As for `Cc1ccc(NC(=O)c2ccc(CN3CCN(C)CC3)cc2)cc1Nc1nccc(-c2cccnc2)n1` [Gleevec, imatinib mesylate], in series [1], the “Kit ligand-stimulated growth of MO7e human leukemia cells” value is reported as “inhibited” and the “apoptosis in Kit ligand-stimulated MO7e cells” value was “induces apoptosis”. Further, in series [2], the “GM-CSF stimulated growth of MO7e human leukemia cells” value is listed as “not affected”.
